Results published in patent publication US20240327459A1, “PEPTIDE FRAGMENTS FOR TREATMENT OF DIABETES” (Follicum AB, priority 2018, published 2024).
“Also recorded” adds a separate entry of the source.

Key:
wild type C57bl/6 mice = experiment: Intraperitoneal glucose tolerance test (IPGTT); type: in vivo, mouse; details: 15 min before 2 g glucose/kg ip, vs saline control
Procedure: Whole blood was collected for glucose and insulin measurements from 10-week-old wild type maleC57bl/6 mice. After a 4 hour fast, the mice were divided into three groups and given an intraperitoneal injection (ip) of either saline, 30 nmol/kg peptide (FIG. 9A) or 200 nmol/kg peptide (FIG. 9B). 15 min after the FOL-014 or saline (control) injections, the mice were administered 2 g of glucose/kg ip. Blood glucose concentrations were measured at 5, 15, 30, 45 and 60 minutes after the glucose injection. Statistical calculations were performed using student's t-test. […] In addition, the difference was significant at 15, 30 and 45 minutes.

INS-1E cells = experiment: Insulin secreting capacity after 72 hours of glucotoxic conditions (Examples 19, 22); type: cell-based, rat; details: Example 19, 20 mM glucose 72 hours with peptide, then 16.7 mM glucose 1 h
Procedure: To investigate the β-cell protective effect of FOL-056, we subjected INS-1E to cytotoxic levels of glucose for 72 hours. Rat INS-1E cells were seeded in 96-well plates (2×10^3 cells/well) in cRPMI medium. Following 72 hours of incubation, the medium was changed to RPMI containing 20 mM glucose with or without FOL-056 or FOL-014 and were cultured at 37° C. during an additional 72 hours to induce glucotoxicity. RPMI containing 5 mM glucose was included as a low glucose control. Following 72 hours, the medium was removed and the INS-1E cells were equilibrated in Krebs-Ringer bicarbonate buffer (KREB), pH 7.4, (supplemented with 10 mM HEPES, 0.1% bovine serum albumin and 2.8 mM glucose) for 2 hours. After equilibration, the buffer was changed and the INS-1E cells were incubated in KREBs containing 16.7 mM glucose […] during 1 h. Immediately after incubation, an aliquot of the buffer was removed and frozen for subsequent assay of insulin content.
To investigate the β-cell protective effect of several novel peptide fragments derived from FOL-005 and FOL-014, INS-1 cells were subjected to cytotoxic levels of glucose for 72 hours. […] In order to correct for the variance between experiments, all values were normalized to, and expressed as percentage of the average value of the high glucose control in the individual experiments. […]

INS-1 cells = experiment: Proliferation of INS-1 cells ([methyl-3H] thymidine incorporation); type: cell-based, rat; details: wells coated with peptide and blocked with BSA, vs BSA coated control wells
Procedure: To investigate if FOL-005 and FOL-014 could induce proliferation of β-cells we used INS-1 cells. Rat INS-1 cells were seeded in 96-well plates in RPMI medium with supplement and after 2 hours the medium was changed to RPMI without supplement. During the proliferation experiment the cells were incubated at different test conditions (FOL-005, FOL-014, coated or in solution, 48 h incubation) and during the last 20 hours of culture period the cells were pulsed with 1 μ Ci/well of [methyl-3H] thymidine. The cells were then harvested onto glass fiber filters using a FilterMate harvester. The filters were air dried, and the bound radioactivity was measured using a liquid scintillation counter. To study whether FOL-005 influenced β-cell proliferation, INS-1 cells were treated with increasing amounts of soluble FOL-005 (0.06-6 μM) during 48 hours and proliferation was measured with radiolabeled thymidine incorporation into newly synthesized DNA.

Sequence: KPLAEIDSIELSYGIK (MISC_FEATURE - peptide, FOL-014)
- plasma glucose levels (wild type C57bl/6 mice; 30 nmol/kg ip): lowered the plasma glucose levels with a significant effect at 45 minutes after the glucose injection
- plasma glucose levels (wild type C57bl/6 mice; 200 nmol/kg ip): significantly lowered the plasma glucose levels as compared to the control when measured as area under the curve; also recorded: significantly lowered the plasma glucose levels as compared to the control at 15 minutes, 30 minutes and 45 minutes
- insulin secreting ability after glucotoxic conditions (INS-1E cells): significantly improved the insulin secreting ability of the β-cells as compared with high glucose media alone
- proliferation of INS-1 cells (INS-1 cells): stimulated proliferation compared to control; also recorded: induced more proliferation compared to only BSA coated wells
